Organism: Rattus norvegicus
Assay: Open TG-GATES - Regimen: Daily Repeat
Assay type: toxicity, organism-based, Sprague-Dawley
Design: regimen Daily Repeat, gender Male, age 6 weeks
Conditions: in vivo, po, route gavage; for APTT / Bas / Eos / Fbg / Hb / Ht / Lym / MCH / MCHC / MCV / Mono / Neu / PT / Plat / RBC / Ret / WBC: tissue Blood; for KIDNEY_L / KIDNEY_R / KIDNEY_TOTAL: tissue Kidney; for LIVER: tissue Liver; for A/G / ALP / ALT / AST / BUN / CRE / Ca / Cl / DBIL / GLC / IP / K / LDH / Na / PL / RALB / TBIL / TC / TG / TP / gamma-GTP: tissue Plasma
[1] = 200 mg/kg, 72 h, dose level Middle, time 3 day
[2] = 200 mg/kg, […], dose level Middle, time 7 day
[3] = 200 mg/kg, […], dose level Middle, time 14 day
[4] = 200 mg/kg, […], dose level Middle, time 28 day
[5] = 600 mg/kg, 72 h, dose level High, time 3 day
[6] = 600 mg/kg, […], dose level High, time 7 day
[7] = 600 mg/kg, […], dose level High, time 14 day
[8] = 600 mg/kg, […], dose level High, time 28 day

## CCOC(=O)[C@H](CCc1ccccc1)N[C@@H](C)C(=O)N1CCC[C@H]1C(=O)O
[1]
  TERMINAL_BW: 240.7 g
  APTT: 15.8 s
  Bas: 0%
  Eos: 1%
  Fbg: 231 mg/dL
  Hb: 13.2 g/dL
  Ht: 40.1%
  Lym: 78%
  MCH: 21.9 pg
  MCHC: 32.9%
  MCV: 66.6 fL
  Mono: 8.4%
  Neu: 12.6%
  PT: 11.8 s
  Plat: 114.3 x10_4/uL
  RBC: 601.8 x10_4/ul
  Ret: 5.9%
  WBC: 85.6 x10_2/uL
  KIDNEY_L: 1.1 g
  KIDNEY_R: 1.1 g
  KIDNEY_TOTAL: 2.2 g
  LIVER: 11.8 g
  A/G: 2
  ALP: 912.6 IU/L
  ALT: 35 IU/L
  AST: 65.2 IU/L
  BUN: 19.4 mg/dL
  CRE: 0.5 mg/dL
  Ca: 11 mg/dL
  Cl: 104.4 meq/L
  DBIL: 0.03 mg/dL
  GLC: 193 mg/dL
  IP: 8.7 mg/dL
  K: 4.3 meq/L
  LDH: 98.2 IU/L
  Na: 140.8 meq/L
  PL: 146 mg/dL
  RALB: 4 g/dL
  TBIL: 0.4 mg/dL
  TC: 81.4 mg/dL
  TG: 81.2 mg/dL
  TP: 6 g/dL
  gamma-GTP: 1.4 IU/L
[2]
  TERMINAL_BW: 259.9 g
  APTT: 16.8 s
  Bas: 0%
  Eos: 1%
  Fbg: 228 mg/dL
  Hb: 13.3 g/dL
  Ht: 40.2%
  Lym: 81.8%
  MCH: 20.4 pg
  MCHC: 33.1%
  MCV: 61.7 fL
  Mono: 6.2%
  Neu: 10.8%
  PT: 11.6 s
  Plat: 123.3 x10_4/uL
  RBC: 651.6 x10_4/ul
  Ret: 4.1%
  WBC: 108.2 x10_2/uL
  KIDNEY_L: 1.2 g
  KIDNEY_R: 1.2 g
  KIDNEY_TOTAL: 2.4 g
  LIVER: 11.6 g
  A/G: 2.2
  ALP: 881.8 IU/L
  ALT: 27.4 IU/L
  AST: 56.8 IU/L
  BUN: 24 mg/dL
  CRE: 0.5 mg/dL
  Ca: 10.3 mg/dL
  Cl: 104.4 meq/L
  DBIL: 0.002 mg/dL
  GLC: 207.4 mg/dL
  IP: 8.4 mg/dL
  K: 4.7 meq/L
  LDH: 88.8 IU/L
  Na: 136.6 meq/L
  PL: 141.6 mg/dL
  RALB: 3.9 g/dL
  TBIL: 0.4 mg/dL
  TC: 74.6 mg/dL
  TG: 81.8 mg/dL
  TP: 5.7 g/dL
  gamma-GTP: 1.4 IU/L
[3]
  TERMINAL_BW: 304.7 g
  APTT: 16.2 s
  Bas: 0%
  Eos: 1.2%
  Fbg: 242.2 mg/dL
  Hb: 13.4 g/dL
  Ht: 40.5%
  Lym: 81%
  MCH: 20.2 pg
  MCHC: 33.2%
  MCV: 60.8 fL
  Mono: 6%
  Neu: 12%
  PT: 11.5 s
  Plat: 113 x10_4/uL
  RBC: 666.8 x10_4/ul
  Ret: 3.6%
  WBC: 116.4 x10_2/uL
  KIDNEY_L: 1.3 g
  KIDNEY_R: 1.3 g
  KIDNEY_TOTAL: 2.6 g
  LIVER: 12.7 g
  A/G: 1.9
  ALP: 760.4 IU/L
  ALT: 28.4 IU/L
  AST: 57.2 IU/L
  BUN: 27.6 mg/dL
  CRE: 0.6 mg/dL
  Ca: 10.8 mg/dL
  Cl: 105.6 meq/L
  DBIL: 0.008 mg/dL
  GLC: 194.8 mg/dL
  IP: 8.3 mg/dL
  K: 4.6 meq/L
  LDH: 86.2 IU/L
  Na: 138 meq/L
  PL: 154.8 mg/dL
  RALB: 3.9 g/dL
  TBIL: 0.3 mg/dL
  TC: 83 mg/dL
  TG: 83.2 mg/dL
  TP: 6.1 g/dL
  gamma-GTP: 1.2 IU/L
[4]
  TERMINAL_BW: 336 g
  APTT: 15.5 s
  Bas: 0%
  Eos: 1%
  Fbg: 240.2 mg/dL
  Hb: 14.3 g/dL
  Ht: 42.9%
  Lym: 87.4%
  MCH: 19 pg
  MCHC: 33.3%
  MCV: 57.1 fL
  Mono: 4.2%
  Neu: 7.4%
  PT: 11.8 s
  Plat: 101.7 x10_4/uL
  RBC: 752.2 x10_4/ul
  Ret: 3.4%
  WBC: 172.8 x10_2/uL
  KIDNEY_L: 1.4 g
  KIDNEY_R: 1.4 g
  KIDNEY_TOTAL: 2.9 g
  LIVER: 12.8 g
  A/G: 1.8
  ALP: 617.8 IU/L
  ALT: 24 IU/L
  AST: 55.4 IU/L
  BUN: 45.2 mg/dL
  CRE: 0.7 mg/dL
  Ca: 10.2 mg/dL
  Cl: 105.8 meq/L
  DBIL: 0.078 mg/dL
  GLC: 206 mg/dL
  IP: 7.5 mg/dL
  K: 4.8 meq/L
  LDH: 62.4 IU/L
  Na: 137.6 meq/L
  PL: 145.6 mg/dL
  RALB: 3.8 g/dL
  TBIL: 0.3 mg/dL
  TC: 77 mg/dL
  TG: 87.2 mg/dL
  TP: 5.9 g/dL
  gamma-GTP: 2.2 IU/L
[5]
  TERMINAL_BW: 244.3 g
  APTT: 16 s
  Bas: 0%
  Eos: 1.4%
  Fbg: 232.8 mg/dL
  Hb: 13 g/dL
  Ht: 38.8%
  Lym: 79.6%
  MCH: 20.9 pg
  MCHC: 33.4%
  MCV: 62.5 fL
  Mono: 6.6%
  Neu: 12.2%
  PT: 11.6 s
  Plat: 116.5 x10_4/uL
  RBC: 620.6 x10_4/ul
  Ret: 4.9%
  WBC: 116.9 x10_2/uL
  KIDNEY_L: 1 g
  KIDNEY_R: 1.1 g
  KIDNEY_TOTAL: 2.1 g
  LIVER: 11.4 g
  A/G: 1.8
  ALP: 892.2 IU/L
  ALT: 33.2 IU/L
  AST: 58.2 IU/L
  BUN: 25.2 mg/dL
  CRE: 0.5 mg/dL
  Ca: 11 mg/dL
  Cl: 104 meq/L
  DBIL: 0.02 mg/dL
  GLC: 193.2 mg/dL
  IP: 8.9 mg/dL
  K: 4.9 meq/L
  LDH: 83.6 IU/L
  Na: 138.8 meq/L
  PL: 154.2 mg/dL
  RALB: 3.8 g/dL
  TBIL: 0.3 mg/dL
  TC: 85.8 mg/dL
  TG: 93.6 mg/dL
  TP: 5.9 g/dL
  gamma-GTP: 1.4 IU/L
[6]
  TERMINAL_BW: 266.1 g
  APTT: 15.8 s
  Bas: 0%
  Eos: 1.2%
  Fbg: 228.2 mg/dL
  Hb: 12.5 g/dL
  Ht: 37.8%
  Lym: 78.2%
  MCH: 21.1 pg
  MCHC: 33.2%
  MCV: 63.8 fL
  Mono: 6.4%
  Neu: 14.8%
  PT: 11.7 s
  Plat: 110 x10_4/uL
  RBC: 593.8 x10_4/ul
  Ret: 3.8%
  WBC: 113.9 x10_2/uL
  KIDNEY_L: 1.2 g
  KIDNEY_R: 1.3 g
  KIDNEY_TOTAL: 2.5 g
  LIVER: 12.4 g
  A/G: 1.9
  ALP: 795.8 IU/L
  ALT: 26.8 IU/L
  AST: 59 IU/L
  BUN: 40.4 mg/dL
  CRE: 0.6 mg/dL
  Ca: 10.6 mg/dL
  Cl: 105.2 meq/L
  DBIL: 0.002 mg/dL
  GLC: 199.6 mg/dL
  IP: 8 mg/dL
  K: 5.1 meq/L
  LDH: 97 IU/L
  Na: 137.4 meq/L
  PL: 144 mg/dL
  RALB: 3.7 g/dL
  TBIL: 0.4 mg/dL
  TC: 80.6 mg/dL
  TG: 85.2 mg/dL
  TP: 5.7 g/dL
  gamma-GTP: 1.2 IU/L
[7]
  TERMINAL_BW: 298.8 g
  APTT: 16.5 s
  Bas: 0%
  Eos: 1.2%
  Fbg: 232.2 mg/dL
  Hb: 12.6 g/dL
  Ht: 37.8%
  Lym: 80%
  MCH: 20.7 pg
  MCHC: 33.4%
  MCV: 61.9 fL
  Mono: 4.2%
  Neu: 14.4%
  PT: 11.7 s
  Plat: 102.3 x10_4/uL
  RBC: 611.2 x10_4/ul
  Ret: 3.3%
  WBC: 122.6 x10_2/uL
  KIDNEY_L: 1.3 g
  KIDNEY_R: 1.3 g
  KIDNEY_TOTAL: 2.7 g
  LIVER: 13 g
  A/G: 1.8
  ALP: 654.8 IU/L
  ALT: 26.8 IU/L
  AST: 58.6 IU/L
  BUN: 38.2 mg/dL
  CRE: 0.6 mg/dL
  Ca: 10.9 mg/dL
  Cl: 104.4 meq/L
  DBIL: 0.006 mg/dL
  GLC: 191 mg/dL
  IP: 8.9 mg/dL
  K: 4.8 meq/L
  LDH: 90.4 IU/L
  Na: 137 meq/L
  PL: 149 mg/dL
  RALB: 3.9 g/dL
  TBIL: 0.3 mg/dL
  TC: 78.8 mg/dL
  TG: 81.2 mg/dL
  TP: 6.1 g/dL
  gamma-GTP: 1.2 IU/L
[8]
  TERMINAL_BW: 358.5 g
  APTT: 16 s
  Bas: 0%
  Eos: 1%
  Fbg: 249.8 mg/dL
  Hb: 13.9 g/dL
  Ht: 41.5%
  Lym: 84.2%
  MCH: 19.4 pg
  MCHC: 33.5%
  MCV: 57.9 fL
  Mono: 4.8%
  Neu: 9.8%
  PT: 11.6 s
  Plat: 114.3 x10_4/uL
  RBC: 717.4 x10_4/ul
  Ret: 5%
  WBC: 148.4 x10_2/uL
  KIDNEY_L: 1.7 g
  KIDNEY_R: 1.7 g
  KIDNEY_TOTAL: 3.4 g
  LIVER: 14.8 g
  A/G: 1.7
  ALP: 553.2 IU/L
  ALT: 23.8 IU/L
  AST: 65.2 IU/L
  BUN: 44 mg/dL
  CRE: 0.7 mg/dL
  Ca: 10.9 mg/dL
  Cl: 105.2 meq/L
  DBIL: 0.062 mg/dL
  GLC: 195.4 mg/dL
  IP: 7.4 mg/dL
  K: 4.9 meq/L
  LDH: 100.2 IU/L
  Na: 137.6 meq/L
  PL: 150.2 mg/dL
  RALB: 3.9 g/dL
  TBIL: 0.3 mg/dL
  TC: 75.4 mg/dL
  TG: 97.8 mg/dL
  TP: 6.1 g/dL
  gamma-GTP: 1.8 IU/L

From ChEMBL document CHEMBL3885861, “Open TG-GATES”
